Test results: the NIST ThermoML archive (doi:10.1016/j.jct.2009.06.021)

How the values were obtained:
[1] = for surface tension liquid-gas: Maximal bubble pressure; for mass density: 101.33 kPa, Liquid, Vibrating tube method
[2] = xn = mol fraction of the nth substance listed; settings: for surface tension liquid-gas: Maximal bubble pressure; for mass density: 101 kPa, Liquid, Vibrating tube method

CCCCS(=O)CCCC [dibutyl sulfoxide]
[1], 313.15 K
Settings | mass density [kg/m3] | surface tension liquid-gas [mN/m]
– | 922.34 | 28.5

CCCCS(=O)CCCC [dibutyl sulfoxide] + ClC(Cl)(Cl)Cl
[2], 313.15 K
Settings | mass density [kg/m3] | surface tension liquid-gas [mN/m]
x2 = 0.1074 | 963.82 | –
x2 = 0.2232 | – | 28
x2 = 0.2288 | 1017.38 | –
x2 = 0.303 | 1052.44 | –
x2 = 0.4057 | 1106.17 | –
x2 = 0.4457 | – | 27.3
x2 = 0.4984 | 1157.99 | –
x2 = 0.51 | – | 27
x2 = 0.5476 | – | 26.7
x2 = 0.601 | 1222.74 | –
x2 = 0.6539 | – | 25.9
x2 = 0.7009 | 1292.11 | –
x2 = 0.7038 | – | 25.4
x2 = 0.7998 | – | 24.5
x2 = 0.8019 | 1370.59 | –
x2 = 0.8962 | – | 23.5

CC[S+]([O-])CC [diethyl sulfoxide]
[1]
Settings | mass density [kg/m3] | surface tension liquid-gas [mN/m]
298.15 K | 1009.51 | 34.6
303.15 K | 1005.14 | 34.3
308.15 K | 1000.77 | 34
313.15 K | 996.4 | 33.7

CC[S+]([O-])CC [diethyl sulfoxide] + ClC(Cl)(Cl)Cl
[2]
Settings | mass density, 298.15 K [kg/m3] | mass density, 303.15 K [kg/m3] | mass density, 308.15 K [kg/m3] | mass density, 313.15 K [kg/m3] | surface tension liquid-gas, 298.15 K [mN/m] | surface tension liquid-gas, 303.15 K [mN/m] | surface tension liquid-gas, 308.15 K [mN/m] | surface tension liquid-gas, 313.15 K [mN/m]
x2 = 0.0408 | 1036.23 | 1031.26 | 1024.88 | 1020.51 | – | – | – | –
x2 = 0.1016 | – | – | – | – | 35 | 34.7 | 34.1 | 33.6
x2 = 0.1065 | 1074.77 | 1069.42 | 1064.04 | 1058.67 | – | – | – | –
x2 = 0.218 | – | – | – | – | 33.9 | 33.4 | 32.7 | 32.1
x2 = 0.2249 | 1142.65 | 1137.29 | 1131.92 | 1126.55 | – | – | – | –
x2 = 0.3172 | – | – | – | – | 32 | 31.5 | 30.9 | 30.3
x2 = 0.3231 | 1198.5 | 1192.67 | 1186.82 | 1180.98 | – | – | – | –
x2 = 0.4093 | – | – | – | – | 30.3 | 29.8 | 29.2 | 28.6
x2 = 0.4567 | 1273.33 | 1266.87 | 1260.4 | 1253.92 | – | – | – | –
x2 = 0.4782 | – | – | – | – | 29.1 | 28.6 | 28.1 | 27.6
x2 = 0.5102 | – | – | – | – | 28.5 | 28 | 27.6 | 27.1
x2 = 0.6562 | – | – | – | – | 27 | 26.5 | 25.9 | 25.3
x2 = 0.7363 | 1433.49 | 1425.5 | 1417.48 | 1409.44 | – | – | – | –
x2 = 0.7512 | – | – | – | – | 26.2 | 25.7 | 25.1 | 24.5
x2 = 0.8701 | – | – | – | – | 25.3 | 24.7 | 24.1 | 23.5
x2 = 0.8985 | 1527.46 | 1519.07 | 1509.96 | 1500.84 | – | – | – | –
x2 = 0.9419 | – | – | – | – | 24.6 | 24 | 23.5 | 22.9
x2 = 0.9533 | 1558.34 | 1548.91 | 1539.42 | 1529.92 | – | – | – | –

C[S+](C)[O-] [dimethyl sulfoxide]
[1]
Settings | mass density [kg/m3] | surface tension liquid-gas [mN/m]
298.15 K | 1095.35 | 42.5
303.15 K | 1090.33 | 42
308.15 K | 1085.32 | 41.5
313.15 K | 1080.29 | 41

CCCS(=O)CCC [dipropyl sulfoxide]
[1]
Settings | mass density [kg/m3] | surface tension liquid-gas [mN/m]
298.15 K | 957.77 | 32.6
303.15 K | 953.67 | 32
308.15 K | 949.58 | 31.5
313.15 K | 945.5 | 31

CCCS(=O)CCC [dipropyl sulfoxide] + ClC(Cl)(Cl)Cl
[2]
Settings | mass density, 298.15 K [kg/m3] | mass density, 303.15 K [kg/m3] | mass density, 308.15 K [kg/m3] | mass density, 313.15 K [kg/m3] | surface tension liquid-gas, 298.15 K [mN/m] | surface tension liquid-gas, 303.15 K [mN/m] | surface tension liquid-gas, 308.15 K [mN/m] | surface tension liquid-gas, 313.15 K [mN/m]
x2 = 0.0837 | 997.89 | 993.53 | 989.15 | 984.79 | – | – | – | –
x2 = 0.2049 | – | – | – | – | 31.2 | 30.8 | 30.4 | 29.9
x2 = 0.2132 | 1061.92 | 1057.03 | 1052.27 | 1047.44 | – | – | – | –
x2 = 0.2784 | 1097.07 | 1091.98 | 1086.9 | 1081.81 | – | – | – | –
x2 = 0.2998 | – | – | – | – | 30.8 | 30.4 | 29.9 | 29.5
x2 = 0.4165 | – | – | – | – | 30.4 | 29.8 | 29.3 | 28.7
x2 = 0.4545 | 1197.46 | 1191.59 | 1185.73 | 1179.84 | – | – | – | –
x2 = 0.5304 | – | – | – | – | 29.6 | 28.9 | 28.2 | 27.7
x2 = 0.6109 | – | – | – | – | 28.8 | 28.1 | 27.5 | 26.9
x2 = 0.6285 | 1305.93 | 1299.22 | 1292.38 | 1285.53 | – | – | – | –
x2 = 0.704 | 1356.22 | 1348.94 | 1341.67 | 1334.38 | – | – | – | –
x2 = 0.7078 | – | – | – | – | 27.6 | 26.9 | 26.2 | 25.7
x2 = 0.8055 | – | – | – | – | 26.3 | 25.7 | 25.1 | 24.5
x2 = 0.8468 | 1461.39 | 1453.03 | 1444.65 | 1436.24 | – | – | – | –
x2 = 0.8547 | 1466.95 | 1458.55 | 1450.15 | 1441.7 | – | – | – | –
x2 = 0.8995 | – | – | – | – | 25.3 | 24.7 | 24.1 | 23.5
x2 = 0.9178 | 1516.99 | 1508.02 | 1499.04 | 1490.03 | – | – | – | –
x2 = 0.9588 | 1550.62 | 1541.21 | 1531.83 | 1522.41 | – | – | – | –

ClC(Cl)(Cl)Cl [tetrachloromethane]
[1]
Settings | mass density [kg/m3] | surface tension liquid-gas [mN/m]
298.15 K | 1584.36 | 24.2
303.15 K | 1574.61 | 23.7
308.15 K | 1564.83 | 23
313.15 K | 1554.96 | 22.3
